# Columns and labels:
# Assay in all cases: Example 2: alcohol ethoxylate adjuvants without glyphosate, visual % damage, tracksprayer 300 l/ha
# Type in all cases: in vivo
# Poa annua = tested on: Poa annua
# Description: (§1) The effect of different types of alcohol ethoxylate (branched—Genapol X-series, and unbranched—Genapol O-series, differing degrees of ethoxylation, see Table 3 below for more details), on unwanted vegetation (broadleaf weed and grass species), in the absence of glyphosate, was investigated and compared to untreated (water only) control weeds.
# (§2) Troughs (measuring 16 cm by 13 cm by 5 cm) were filled with local field soil. Seeds of Veronica persica, Stellaria media, Trifolium repens and Poa annua were sown 24 days before application of test samples. Plants were grown in the glasshouse at 18 to 20° C. and 60% relative humidity. Application of alcohol ethoxylate test samples was carried out using a tracksprayer, spraying at a rate of 300 l/ha. Plants were kept in glasshouse and visual assessment of the estimated percentage damage to the plant was carried out 1, 7, and 14 days from application.
# (§3) Damage was assessed as wilting, desiccation or any other kind of visual injury in comparison to the untreated control (water only).
# Stellaria media = tested on: Stellaria media
# Description: as §1, §2, §3
# Trifolium repens = tested on: Trifolium repens
# Description: as §1, §2, §3
# Veronica persica = tested on: Veronica persica
# Description: as §1, §2, §3
substance,measurement,setting,value
Oleyl alcohol polyglycol ether with 8 moles of ethoxylation [GenapolO080],mean % damage 1 daa Poa annua,Poa annua; adjuvant 1% w/v,0%
same,mean % damage 7 daa Poa annua,Poa annua; adjuvant 1% w/v,5%
same,mean % damage 14 daa Poa annua,Poa annua; adjuvant 1% w/v,0%
same,mean % damage 1 daa Poa annua,Poa annua; adjuvant 1.5% w/v,0%
same,mean % damage 7 daa Poa annua,Poa annua; adjuvant 1.5% w/v,5%
same,mean % damage 14 daa Poa annua,Poa annua; adjuvant 1.5% w/v,0%
same,mean % damage 1 daa Poa annua,Poa annua; adjuvant 2% w/v,0%
same,mean % damage 7 daa Poa annua,Poa annua; adjuvant 2% w/v,5%
same,mean % damage 14 daa Poa annua,Poa annua; adjuvant 2% w/v,0%
same,mean % damage 1 daa Poa annua,Poa annua; adjuvant 2.5% w/v,0%
same,mean % damage 7 daa Poa annua,Poa annua; adjuvant 2.5% w/v,5%
same,mean % damage 14 daa Poa annua,Poa annua; adjuvant 2.5% w/v,0%
same,mean % damage 1 daa Stellaria media,Stellaria media; adjuvant 1% w/v,0%
same,mean % damage 7 daa Stellaria media,Stellaria media; adjuvant 1% w/v,0%
same,mean % damage 14 daa Stellaria media,Stellaria media; adjuvant 1% w/v,0%
same,mean % damage 1 daa Stellaria media,Stellaria media; adjuvant 1.5% w/v,0%
same,mean % damage 7 daa Stellaria media,Stellaria media; adjuvant 1.5% w/v,0%
same,mean % damage 14 daa Stellaria media,Stellaria media; adjuvant 1.5% w/v,5%
same,mean % damage 1 daa Stellaria media,Stellaria media; adjuvant 2% w/v,0%
same,mean % damage 7 daa Stellaria media,Stellaria media; adjuvant 2% w/v,5%
same,mean % damage 14 daa Stellaria media,Stellaria media; adjuvant 2% w/v,0%
same,mean % damage 1 daa Stellaria media,Stellaria media; adjuvant 2.5% w/v,0%
same,mean % damage 7 daa Stellaria media,Stellaria media; adjuvant 2.5% w/v,0%
same,mean % damage 14 daa Stellaria media,Stellaria media; adjuvant 2.5% w/v,10%
same,mean % damage 1 daa Trifolium repens,Trifolium repens; adjuvant 1% w/v,0%
same,mean % damage 7 daa Trifolium repens,Trifolium repens; adjuvant 1% w/v,0%
same,mean % damage 14 daa Trifolium repens,Trifolium repens; adjuvant 1% w/v,0%
same,mean % damage 1 daa Trifolium repens,Trifolium repens; adjuvant 1.5% w/v,0%
same,mean % damage 7 daa Trifolium repens,Trifolium repens; adjuvant 1.5% w/v,0%
same,mean % damage 14 daa Trifolium repens,Trifolium repens; adjuvant 1.5% w/v,0%
same,mean % damage 1 daa Trifolium repens,Trifolium repens; adjuvant 2% w/v,5%
same,mean % damage 7 daa Trifolium repens,Trifolium repens; adjuvant 2% w/v,0%
same,mean % damage 14 daa Trifolium repens,Trifolium repens; adjuvant 2% w/v,0%
same,mean % damage 1 daa Trifolium repens,Trifolium repens; adjuvant 2.5% w/v,5%
same,mean % damage 7 daa Trifolium repens,Trifolium repens; adjuvant 2.5% w/v,10%
same,mean % damage 14 daa Trifolium repens,Trifolium repens; adjuvant 2.5% w/v,10%
same,mean % damage 1 daa Veronica persica,Veronica persica; adjuvant 1% w/v,0%
same,mean % damage 7 daa Veronica persica,Veronica persica; adjuvant 1% w/v,5%
same,mean % damage 14 daa Veronica persica,Veronica persica; adjuvant 1% w/v,10%
same,mean % damage 1 daa Veronica persica,Veronica persica; adjuvant 1.5% w/v,0%
same,mean % damage 7 daa Veronica persica,Veronica persica; adjuvant 1.5% w/v,0%
same,mean % damage 14 daa Veronica persica,Veronica persica; adjuvant 1.5% w/v,10%
same,mean % damage 1 daa Veronica persica,Veronica persica; adjuvant 2% w/v,0%
same,mean % damage 7 daa Veronica persica,Veronica persica; adjuvant 2% w/v,0%
same,mean % damage 14 daa Veronica persica,Veronica persica; adjuvant 2% w/v,0%
same,mean % damage 1 daa Veronica persica,Veronica persica; adjuvant 2.5% w/v,0%
same,mean % damage 7 daa Veronica persica,Veronica persica; adjuvant 2.5% w/v,5%
same,mean % damage 14 daa Veronica persica,Veronica persica; adjuvant 2.5% w/v,0%
Oleyl alcohol polyglycol ether with 2 moles of ethoxylation [GenapolO020],mean % damage 1 daa Poa annua,Poa annua; adjuvant 1% w/v,0%
same,mean % damage 7 daa Poa annua,Poa annua; adjuvant 1% w/v,0%
same,mean % damage 14 daa Poa annua,Poa annua; adjuvant 1% w/v,0%
same,mean % damage 1 daa Poa annua,Poa annua; adjuvant 1.5% w/v,0%
same,mean % damage 7 daa Poa annua,Poa annua; adjuvant 1.5% w/v,0%
same,mean % damage 14 daa Poa annua,Poa annua; adjuvant 1.5% w/v,0%
same,mean % damage 1 daa Poa annua,Poa annua; adjuvant 2% w/v,0%
same,mean % damage 7 daa Poa annua,Poa annua; adjuvant 2% w/v,0%
same,mean % damage 14 daa Poa annua,Poa annua; adjuvant 2% w/v,0%
same,mean % damage 1 daa Poa annua,Poa annua; adjuvant 2.5% w/v,0%
same,mean % damage 7 daa Poa annua,Poa annua; adjuvant 2.5% w/v,0%
same,mean % damage 14 daa Poa annua,Poa annua; adjuvant 2.5% w/v,0%
same,mean % damage 1 daa Stellaria media,Stellaria media; adjuvant 1% w/v,0%
same,mean % damage 7 daa Stellaria media,Stellaria media; adjuvant 1% w/v,0%
same,mean % damage 14 daa Stellaria media,Stellaria media; adjuvant 1% w/v,0%
same,mean % damage 1 daa Stellaria media,Stellaria media; adjuvant 1.5% w/v,0%
same,mean % damage 7 daa Stellaria media,Stellaria media; adjuvant 1.5% w/v,0%
same,mean % damage 14 daa Stellaria media,Stellaria media; adjuvant 1.5% w/v,0%
same,mean % damage 1 daa Stellaria media,Stellaria media; adjuvant 2% w/v,0%
same,mean % damage 7 daa Stellaria media,Stellaria media; adjuvant 2% w/v,0%
same,mean % damage 14 daa Stellaria media,Stellaria media; adjuvant 2% w/v,0%
same,mean % damage 1 daa Stellaria media,Stellaria media; adjuvant 2.5% w/v,0%
same,mean % damage 7 daa Stellaria media,Stellaria media; adjuvant 2.5% w/v,5%
same,mean % damage 14 daa Stellaria media,Stellaria media; adjuvant 2.5% w/v,0%
same,mean % damage 1 daa Trifolium repens,Trifolium repens; adjuvant 1% w/v,0%
same,mean % damage 7 daa Trifolium repens,Trifolium repens; adjuvant 1% w/v,0%
same,mean % damage 14 daa Trifolium repens,Trifolium repens; adjuvant 1% w/v,0%
same,mean % damage 1 daa Trifolium repens,Trifolium repens; adjuvant 1.5% w/v,0%
same,mean % damage 7 daa Trifolium repens,Trifolium repens; adjuvant 1.5% w/v,0%
same,mean % damage 14 daa Trifolium repens,Trifolium repens; adjuvant 1.5% w/v,0%
same,mean % damage 1 daa Trifolium repens,Trifolium repens; adjuvant 2% w/v,0%
same,mean % damage 7 daa Trifolium repens,Trifolium repens; adjuvant 2% w/v,0%
same,mean % damage 14 daa Trifolium repens,Trifolium repens; adjuvant 2% w/v,0%
same,mean % damage 1 daa Trifolium repens,Trifolium repens; adjuvant 2.5% w/v,0%
same,mean % damage 7 daa Trifolium repens,Trifolium repens; adjuvant 2.5% w/v,10%
same,mean % damage 14 daa Trifolium repens,Trifolium repens; adjuvant 2.5% w/v,0%
same,mean % damage 1 daa Veronica persica,Veronica persica; adjuvant 1% w/v,0%
same,mean % damage 7 daa Veronica persica,Veronica persica; adjuvant 1% w/v,0%
same,mean % damage 14 daa Veronica persica,Veronica persica; adjuvant 1% w/v,0%
same,mean % damage 1 daa Veronica persica,Veronica persica; adjuvant 1.5% w/v,0%
same,mean % damage 7 daa Veronica persica,Veronica persica; adjuvant 1.5% w/v,0%
same,mean % damage 14 daa Veronica persica,Veronica persica; adjuvant 1.5% w/v,0%
same,mean % damage 1 daa Veronica persica,Veronica persica; adjuvant 2% w/v,0%
same,mean % damage 7 daa Veronica persica,Veronica persica; adjuvant 2% w/v,0%
same,mean % damage 14 daa Veronica persica,Veronica persica; adjuvant 2% w/v,0%
same,mean % damage 1 daa Veronica persica,Veronica persica; adjuvant 2.5% w/v,0%
same,mean % damage 7 daa Veronica persica,Veronica persica; adjuvant 2.5% w/v,0%
same,mean % damage 14 daa Veronica persica,Veronica persica; adjuvant 2.5% w/v,0%
Iso-tridecyl alcohol polyglycol ether with 2 moles of ethoxylation [GenapolX020],mean % damage 1 daa Poa annua,Poa annua; adjuvant 1% w/v,0%
same,mean % damage 7 daa Poa annua,Poa annua; adjuvant 1% w/v,0%
same,mean % damage 14 daa Poa annua,Poa annua; adjuvant 1% w/v,0%
same,mean % damage 1 daa Poa annua,Poa annua; adjuvant 1.5% w/v,0%
same,mean % damage 7 daa Poa annua,Poa annua; adjuvant 1.5% w/v,5%
same,mean % damage 14 daa Poa annua,Poa annua; adjuvant 1.5% w/v,0%
same,mean % damage 1 daa Poa annua,Poa annua; adjuvant 2% w/v,0%
same,mean % damage 7 daa Poa annua,Poa annua; adjuvant 2% w/v,5%
same,mean % damage 14 daa Poa annua,Poa annua; adjuvant 2% w/v,0%
same,mean % damage 1 daa Poa annua,Poa annua; adjuvant 2.5% w/v,0%
same,mean % damage 7 daa Poa annua,Poa annua; adjuvant 2.5% w/v,5%
same,mean % damage 14 daa Poa annua,Poa annua; adjuvant 2.5% w/v,0%
same,mean % damage 1 daa Stellaria media,Stellaria media; adjuvant 1% w/v,0%
same,mean % damage 7 daa Stellaria media,Stellaria media; adjuvant 1% w/v,0%
same,mean % damage 14 daa Stellaria media,Stellaria media; adjuvant 1% w/v,0%
same,mean % damage 1 daa Stellaria media,Stellaria media; adjuvant 1.5% w/v,0%
same,mean % damage 7 daa Stellaria media,Stellaria media; adjuvant 1.5% w/v,0%
same,mean % damage 14 daa Stellaria media,Stellaria media; adjuvant 1.5% w/v,0%
same,mean % damage 1 daa Stellaria media,Stellaria media; adjuvant 2% w/v,0%
same,mean % damage 7 daa Stellaria media,Stellaria media; adjuvant 2% w/v,5%
same,mean % damage 14 daa Stellaria media,Stellaria media; adjuvant 2% w/v,5%
same,mean % damage 1 daa Stellaria media,Stellaria media; adjuvant 2.5% w/v,0%
same,mean % damage 7 daa Stellaria media,Stellaria media; adjuvant 2.5% w/v,5%
same,mean % damage 14 daa Stellaria media,Stellaria media; adjuvant 2.5% w/v,0%
same,mean % damage 1 daa Trifolium repens,Trifolium repens; adjuvant 1% w/v,0%
same,mean % damage 7 daa Trifolium repens,Trifolium repens; adjuvant 1% w/v,0%
same,mean % damage 14 daa Trifolium repens,Trifolium repens; adjuvant 1% w/v,0%
same,mean % damage 1 daa Trifolium repens,Trifolium repens; adjuvant 1.5% w/v,5%
same,mean % damage 7 daa Trifolium repens,Trifolium repens; adjuvant 1.5% w/v,5%
same,mean % damage 14 daa Trifolium repens,Trifolium repens; adjuvant 1.5% w/v,0%
same,mean % damage 1 daa Trifolium repens,Trifolium repens; adjuvant 2% w/v,10%
same,mean % damage 7 daa Trifolium repens,Trifolium repens; adjuvant 2% w/v,5%
same,mean % damage 14 daa Trifolium repens,Trifolium repens; adjuvant 2% w/v,0%
same,mean % damage 1 daa Trifolium repens,Trifolium repens; adjuvant 2.5% w/v,10%
same,mean % damage 7 daa Trifolium repens,Trifolium repens; adjuvant 2.5% w/v,5%
same,mean % damage 14 daa Trifolium repens,Trifolium repens; adjuvant 2.5% w/v,10%
same,mean % damage 1 daa Veronica persica,Veronica persica; adjuvant 1% w/v,0%
same,mean % damage 7 daa Veronica persica,Veronica persica; adjuvant 1% w/v,0%
same,mean % damage 14 daa Veronica persica,Veronica persica; adjuvant 1% w/v,0%
same,mean % damage 1 daa Veronica persica,Veronica persica; adjuvant 1.5% w/v,0%
same,mean % damage 7 daa Veronica persica,Veronica persica; adjuvant 1.5% w/v,0%
same,mean % damage 14 daa Veronica persica,Veronica persica; adjuvant 1.5% w/v,0%
same,mean % damage 1 daa Veronica persica,Veronica persica; adjuvant 2% w/v,5%
same,mean % damage 7 daa Veronica persica,Veronica persica; adjuvant 2% w/v,5%
same,mean % damage 14 daa Veronica persica,Veronica persica; adjuvant 2% w/v,5%
same,mean % damage 1 daa Veronica persica,Veronica persica; adjuvant 2.5% w/v,5%
same,mean % damage 7 daa Veronica persica,Veronica persica; adjuvant 2.5% w/v,5%
same,mean % damage 14 daa Veronica persica,Veronica persica; adjuvant 2.5% w/v,5%
